Measurements as given in patent US11839671B2, “Oral care compositions comprising tin ions” (The Procter & Gamble Company, priority 2019, dated 2023).

Test: Solubility of tin ions in polyol solutions with SnF2 at various pH (visual appearance)
Format: physicochemical
Conditions: for Appearance of polyol solution with SnF2, pH 2-4 / Appearance of polyol solution with SnF2, pH 4-6 / Appearance of polyol solution with SnF2, pH 6-8 / Appearance of polyol solution with SnF2, pH 8-10: aqueous polyol solution + 0.45 g SnF2; for Appearance of polyol solution with SnF2, pH 2-4 / Appearance of polyol solution with SnF2, pH 4-6 / Appearance of polyol solution with SnF2, pH 6-8: cloudy = insoluble tin complexes formed; for Appearance of polyol solution with SnF2, pH 8-10: cloudy = Sn(OH)2 formed; for Appearance of polyol/stannous fluoride solution at a pH of greater than 7: aqueous polyol/stannous fluoride solution, pH greater than 7, cloudy = Sn(OH)2 formation not prevented
Protocol: A 30% (w/w) solution was prepared for each polyol was prepared using the appropriate amount of the pure polyol and deionized water. Next, 46 g of the 30% (w/w) polyol solution was placed in a 250 mL glass beaker with a stirring bar on top of a magnetic stirring apparatus. 21 g of deionized water was added to the glass beaker and the magnetic stirring apparatus was started to commence stirring of the solution. A pH electrode was connected to a pH meter (VWR Scientific, Model 9100, Radnor, Pa.) and the pH electrode (ThermoFisher Scientific, Orion 8165BNWP, Waltham, Mass.) was placed in the stirring polyol solution.
0.45 grams of a tin ion source, such as stannous fluoride, was added to the stirring polyol solution. The pH was recorded once the tin ion source was completely added. The pH of the solution was increased by dropwise addition of a 33% (w/w) solution of NaOH.
0.45 grams of a tin ion source, such as stannous fluoride, was added to the stirring polyol solution. The pH was recorded once the tin ion source was completely added. The pH of the solution was decreased by dropwise addition of a 33% (w/w) solution of HCl.
A solution that appeared cloudy indicated the formation of insoluble tin complexes. At a pH of greater than 7, a cloudy solution indicated the formation of Sn(OH)2. FIG. 1-4 illustrates TABLE 2 by showing the appearance of each solution described in TABLE 2.

OC[C@@H](O)[C@@H](O)CO [Erythritol (4 Carbon), Erythritol]
Appearance of polyol solution with SnF2, pH 2-4: Clear | Appearance of polyol solution with SnF2, pH 4-6: Cloudy | Appearance of polyol solution with SnF2, pH 6-8: Cloudy | Appearance of polyol solution with SnF2, pH 8-10: Cloudy | Appearance of polyol/stannous fluoride solution at a pH of greater than 7: cloudy

OC[C@@H](O)[C@@H](O)[C@H](O)[C@@H](O)CO [Sorbitol (6 Carbon), Sorbitol]
Appearance of polyol solution with SnF2, pH 2-4: Clear | Appearance of polyol solution with SnF2, pH 2-4 (listed as sorbitol): clear | Appearance of polyol solution with SnF2, pH 4-6: Cloudy | Appearance of polyol solution with SnF2, pH 4-6 (listed as sorbitol): cloudy | Appearance of polyol solution with SnF2, pH 6-8: Cloudy | Appearance of polyol solution with SnF2, pH 6-8 (listed as sorbitol): cloudy | Appearance of polyol solution with SnF2, pH 8-10: Clear | Appearance of polyol solution with SnF2, pH 8-10 (listed as sorbitol): clear

OCC(O)CO [Glycerin (3 Carbon), Glycerin]
Appearance of polyol solution with SnF2, pH 2-4: Clear | Appearance of polyol solution with SnF2, pH 4-6: Clear | Appearance of polyol solution with SnF2, pH 6-8: Cloudy | Appearance of polyol solution with SnF2, pH 8-10: Cloudy | Appearance of polyol/stannous fluoride solution at a pH of greater than 7: cloudy

OC[C@@H](O)[C@H](O)[C@@H](O)CO [Xylitol (5 Carbon), Xylitol]
Appearance of polyol solution with SnF2, pH 2-4: Clear | Appearance of polyol solution with SnF2, pH 2-4 (listed as xylitol): clear | Appearance of polyol solution with SnF2, pH 4-6: Cloudy | Appearance of polyol solution with SnF2, pH 4-6 (listed as xylitol): cloudy | Appearance of polyol solution with SnF2, pH 6-8: Cloudy | Appearance of polyol solution with SnF2, pH 6-8 (listed as xylitol): cloudy | Appearance of polyol solution with SnF2, pH 8-10: Clear | Appearance of polyol solution with SnF2, pH 8-10 (listed as xylitol): clear
